Test results from patent US20150337003A1, “ABIRATERONE AND ANALOGS THEREOF FOR THE TREATMENT OF DISEASES ASSOCIATED WITH CORTISOL OVERPRODUCTION” (CORTENDO AB (PUBL), priority 2013, published 2015).
Values after ≈ are worked out from the molar mass of the structure shown.

Experiments:
[1] = target: Cyp2D6 (Homo sapiens, UniProt P10635); assay: in vitro enzyme profile: Cyp2D6 inhibition; format: in vitro ADME
[2] = tested on: cortisol and testosterone after ACTH stimulation; assay: elevation of cortisol and testosterone after ACTH stimulation in male Guinea pigs; format: in vivo, Guinea pig; conditions: for Cortisol, plasma / testosterone, plasma / Cortisol, plasma, Mean / testosterone, plasma, Mean: 25 IU/kg ACTH + 100 mg/kg PO; for Cortisol, plasma, Mean: mean of 4 Guinea pigs
Method: Each animal was dosed by oral gavage according to the following table at −0.5 hr, and then dosed by intramuscular injection with ACTH 25 IU/kg at 0 hr.
Animals were sedated under general inhalant anesthesia (3% isoflurane) and blood samples were retrieved at 1, 2 and 4 hrs via saphenous vein. Blood aliquots (400 uL) were collected in tubes coated with K2-EDTA, mixed gently, then kept on ice and centrifuged at 2,000 g for 5 minutes at 4° C. within 15 minutes of collection. The plasma was then harvested and kept frozen at −80° C. until further processing.

[3] = HLM t1/2 (microsomal stability); format: in vitro ADME; conditions: human, liver microsomes
[4] = Solubility; format: physicochemical
[5] = target: Cyp3A4 (Homo sapiens, UniProt P08684); assay: in vitro enzyme profile: Cyp3A4 inhibition; format: in vitro ADME
Chain of Cyp3A4 (P08684 whole entry): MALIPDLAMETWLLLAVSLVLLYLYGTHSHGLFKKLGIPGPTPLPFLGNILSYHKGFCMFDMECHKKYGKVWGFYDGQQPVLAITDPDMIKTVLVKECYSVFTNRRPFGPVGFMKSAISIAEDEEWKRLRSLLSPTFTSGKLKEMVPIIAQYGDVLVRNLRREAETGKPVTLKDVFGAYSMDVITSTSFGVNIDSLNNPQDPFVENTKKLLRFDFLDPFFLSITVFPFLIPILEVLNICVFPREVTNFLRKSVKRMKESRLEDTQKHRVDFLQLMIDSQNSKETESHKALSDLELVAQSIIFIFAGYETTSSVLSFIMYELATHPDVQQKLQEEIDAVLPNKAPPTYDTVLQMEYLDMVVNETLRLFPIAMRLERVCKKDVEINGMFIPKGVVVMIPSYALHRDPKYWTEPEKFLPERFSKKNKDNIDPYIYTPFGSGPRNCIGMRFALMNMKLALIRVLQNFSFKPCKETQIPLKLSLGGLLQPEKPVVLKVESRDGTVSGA

[6] = target: Cyp2C9 (Homo sapiens, UniProt P11712); assay: in vitro enzyme profile: Cyp2C9 inhibition; format: in vitro ADME
Chain of Cyp2C9 (P11712 whole entry): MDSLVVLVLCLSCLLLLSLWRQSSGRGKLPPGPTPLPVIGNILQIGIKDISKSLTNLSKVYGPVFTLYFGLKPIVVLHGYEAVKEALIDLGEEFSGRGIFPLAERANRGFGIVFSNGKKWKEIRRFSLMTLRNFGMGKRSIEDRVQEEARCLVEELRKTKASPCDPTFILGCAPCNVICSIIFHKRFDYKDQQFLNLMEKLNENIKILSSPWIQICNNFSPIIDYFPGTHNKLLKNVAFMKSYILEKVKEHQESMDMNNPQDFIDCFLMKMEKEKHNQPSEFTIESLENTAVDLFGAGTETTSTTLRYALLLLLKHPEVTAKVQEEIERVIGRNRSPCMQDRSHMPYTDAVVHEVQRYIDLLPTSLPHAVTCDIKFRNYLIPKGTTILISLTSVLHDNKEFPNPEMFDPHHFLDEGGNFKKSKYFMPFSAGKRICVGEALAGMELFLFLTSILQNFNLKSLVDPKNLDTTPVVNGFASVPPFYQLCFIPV

[7] = target: T1, Cyp17 (Homo sapiens, UniProt P05093); assay: biochemical; conditions: read-out: Cyp17 IC60 (nM)
T1 sequence (P05093 1-508): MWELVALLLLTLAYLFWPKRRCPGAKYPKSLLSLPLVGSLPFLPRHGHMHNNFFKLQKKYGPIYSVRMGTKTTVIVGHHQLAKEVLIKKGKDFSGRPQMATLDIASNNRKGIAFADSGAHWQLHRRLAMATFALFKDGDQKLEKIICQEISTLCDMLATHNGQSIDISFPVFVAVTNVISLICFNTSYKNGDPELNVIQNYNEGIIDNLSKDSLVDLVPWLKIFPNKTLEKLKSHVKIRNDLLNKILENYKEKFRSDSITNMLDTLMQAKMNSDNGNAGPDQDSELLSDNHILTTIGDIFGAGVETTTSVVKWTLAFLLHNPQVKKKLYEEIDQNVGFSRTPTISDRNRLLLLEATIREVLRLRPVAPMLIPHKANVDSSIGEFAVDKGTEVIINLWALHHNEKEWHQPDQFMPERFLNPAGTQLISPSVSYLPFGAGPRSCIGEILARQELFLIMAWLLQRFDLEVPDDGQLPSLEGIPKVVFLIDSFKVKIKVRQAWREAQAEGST

[8] = GPLM t1/2 (microsomal stability); format: in vitro ADME; conditions: guinea pig, liver microsomes
[9] = target: T2, Cyp21 (Homo sapiens, UniProt P08686); assay: in vitro enzyme profile: Cyp21 inhibition; format: biochemical
T2 sequence (P08686 1-495): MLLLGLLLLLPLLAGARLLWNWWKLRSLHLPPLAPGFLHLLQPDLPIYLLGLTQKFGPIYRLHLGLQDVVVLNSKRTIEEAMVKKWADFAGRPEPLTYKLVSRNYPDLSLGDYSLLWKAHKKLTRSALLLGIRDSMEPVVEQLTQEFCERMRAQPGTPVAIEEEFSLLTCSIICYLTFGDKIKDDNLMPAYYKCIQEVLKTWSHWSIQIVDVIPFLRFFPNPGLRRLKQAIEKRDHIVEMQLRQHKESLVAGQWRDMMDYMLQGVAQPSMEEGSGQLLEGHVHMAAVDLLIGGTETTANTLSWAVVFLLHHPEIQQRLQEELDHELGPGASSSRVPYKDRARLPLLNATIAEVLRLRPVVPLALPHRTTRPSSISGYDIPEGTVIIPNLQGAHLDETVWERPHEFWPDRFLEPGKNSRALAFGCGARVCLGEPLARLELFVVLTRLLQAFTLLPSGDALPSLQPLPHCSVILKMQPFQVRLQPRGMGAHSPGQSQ

[10] = tested on: Cyp11; assay: in vitro enzyme profile: Cyp11 inhibition; format: biochemical
[11] = male Guinea pigs, ACTH stimulation, 100 mg/kg PO, vs vehicle

Chain of Cyp2D6 (P10635 whole entry): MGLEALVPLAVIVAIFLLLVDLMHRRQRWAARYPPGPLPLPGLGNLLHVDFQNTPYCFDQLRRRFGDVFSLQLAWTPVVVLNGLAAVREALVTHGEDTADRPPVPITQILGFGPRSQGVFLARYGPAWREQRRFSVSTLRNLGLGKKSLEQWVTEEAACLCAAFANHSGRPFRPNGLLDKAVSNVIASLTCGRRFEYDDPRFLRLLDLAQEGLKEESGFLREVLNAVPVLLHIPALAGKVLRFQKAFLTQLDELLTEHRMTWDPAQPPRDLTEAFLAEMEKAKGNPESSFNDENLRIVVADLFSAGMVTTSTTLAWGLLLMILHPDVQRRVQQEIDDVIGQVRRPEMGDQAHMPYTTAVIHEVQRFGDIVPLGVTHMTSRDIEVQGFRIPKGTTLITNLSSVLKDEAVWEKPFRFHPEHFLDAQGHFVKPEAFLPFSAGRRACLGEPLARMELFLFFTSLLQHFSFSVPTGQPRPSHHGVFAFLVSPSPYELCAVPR

C[C@]12CC[C@H](O)CC1=CC[C@@H]1[C@@H]2CC[C@]2(C)C(c3cccnc3)=CC[C@@H]12 [abiraterone, (3S,8R,9S,10R,13S,14S)-10,13-dimethyl-17-(pyridin-3-yl)-2,3,4,7,8,9,10,11,12,13,14,15-dodecahydro-1H-cyclopenta[a]phenanthren-3-ol]
Cyp2D6 IC60 [1]: 2000 nM | Cortisol, plasma ([2]; Guinea pig#19, 1 hr): 692 ng/mL | testosterone, plasma ([2]; Guinea pig#19, 1 hr): BQL | Cortisol, plasma ([2]; Guinea pig#19, 2 hr): 574 ng/mL | testosterone, plasma ([2]; Guinea pig#19, 2 hr): BQL | Cortisol, plasma ([2]; Guinea pig#19, 4 hr): 320 ng/mL | testosterone, plasma ([2]; Guinea pig#19, 4 hr): 0.328 ng/mL | Cortisol, plasma ([2]; Guinea pig#20, 1 hr): 821 ng/mL | testosterone, plasma ([2]; Guinea pig#20, 1 hr): BQL | Cortisol, plasma ([2]; Guinea pig#20, 2 hr): 720 ng/mL | testosterone, plasma ([2]; Guinea pig#20, 2 hr): 0.473 ng/mL | Cortisol, plasma ([2]; Guinea pig#20, 4 hr): 461 ng/mL | testosterone, plasma ([2]; Guinea pig#20, 4 hr): BQL | Cortisol, plasma ([2]; Guinea pig#21, 1 hr): 659 ng/mL | testosterone, plasma ([2]; Guinea pig#21, 1 hr): BQL | Cortisol, plasma ([2]; Guinea pig#21, 2 hr): 470 ng/mL | testosterone, plasma ([2]; Guinea pig#21, 2 hr): BQL | Cortisol, plasma ([2]; Guinea pig#21, 4 hr): 325 ng/mL | testosterone, plasma ([2]; Guinea pig#21, 4 hr): BQL | Cortisol, plasma ([2]; Guinea pig#22, 1 hr): 970 ng/mL | testosterone, plasma ([2]; Guinea pig#22, 1 hr): 0.501 ng/mL | Cortisol, plasma ([2]; Guinea pig#22, 2 hr): 876 ng/mL | testosterone, plasma ([2]; Guinea pig#22, 2 hr): 0.520 ng/mL | Cortisol, plasma ([2]; Guinea pig#22, 4 hr): 529 ng/mL | testosterone, plasma ([2]; Guinea pig#22, 4 hr): 0.461 ng/mL | effect on cortisol levels [2, 11]: significantly lower | effect on testosterone levels [2, 11]: significantly lower | Cortisol, plasma, Mean ([2]; 1 hr): 786 ng/mL | Cortisol, plasma, Mean ([2]; 2 hr): 660 ng/mL | Cortisol, plasma, Mean ([2]; 4 hr): 409 ng/mL | testosterone, plasma, Mean ([2]; 1 hr): 0.501 ng/mL | testosterone, plasma, Mean ([2]; 2 hr): 0.497 ng/mL | testosterone, plasma, Mean ([2]; 4 hr): 0.395 ng/mL | half-life [3]: 60 min | solubility [4]: 1 µM (≈ 0.35 µg/mL) | Cyp3A4 IC60 [5]: 969 nM | Cyp2C9 IC60 [6]: 2000 nM | IC60 [7]: 1.78 nM | half-life [8]: 7.7 min | IC60 [9]: 1550 nM | Cyp11 IC60 [10]: 430 nM
